PMC7497692 (Investigational New Drugs, 2020)

Columns and labels:
[1] = Metabolite profiling and identification in plasma, urine and feces (part A); format: in vivo, human healthy male volunteers; details: oral part A
Procedure: Participants were hospitalized from day 1 to day 16 of the study, and further assessed on days 19, 22, and 25 (trial end). […] Pre-dose feces and urine samples were collected on day 1 and day 2, respectively. Urine was collected at 4- to 12-h intervals on day 1 and every 24 h thereafter up to day 16. Feces were collected every 24 h up to day 16. Provision was made to collect further samples up to day 39 if >1% of the administered dose was detectable in the total (urine and feces) excreta per day on two consecutive measurements.
Metabolite profiling and structure elucidation in plasma, urine, and feces were performed at the Institute of Drug Metabolism and Pharmacokinetics, Merck KGaA, Grafing, Germany, using a radiometric UPLC method coupled to a high-resolution MS. For urine and feces, metabolites were identified in a single pooled sample per matrix and subject (urine pool of 4–120 h and feces pool of 0–192 h), that covered at least 90% of the total radioactivity of the respective matrix excreted. Intervals with low radioactivity were not used for the generation of the pooled samples to avoid dilution, and to increase the signal-to-noise ratio of the respective chromatograms.
The metabolite structure elucidation was performed using the linear trap quadrupole Orbitrap XL hybrid Fourier transform (FT) MS (Thermo Scientific, Dreieich, Germany) coupled to a Waters Acquity UPLC system. Full-scan FT spectra were acquired for measurement of the masses of molecular ions of parent and metabolites. MS^2 fragmentation spectra were acquired after high-energy collisional dissociation of the appropriate molecular ions. Allocation and confirmation of the proposed metabolites to the radioactive peaks were performed using an API4000 QTrap (AB Sciex, Darmstadt, Germany) MS with simultaneous splitting using a fraction collection system (CTC HTS PAL Fraction Collector, Axel Semrau, Sprockhövel, Germany), and offline radioactive measurement using a Topcount NXT® microplate scintillation counter (PerkinElmer, Rodgau, Germany).
The maximum plasma concentration (Cmax) and time to reach maximum concentration (tmax) were derived directly from the plasma concentration–time data. Lag time (tlag) was the time prior to the first measurable (non-zero) concentration. The area under the plasma concentration–time curve from 0 to t (last measurable concentration; AUC0–t) was calculated using a mixed log–linear trapezoidal method. Area under the plasma concentration–time curve until the last sampling time (AUCall), which corresponds to AUC0–240 h within the observation period, was used for metabolite calculations. Amounts excreted in urine, feces, and total (urine + feces) were calculated as the sum of amounts (concentration multiplied by volume) for each collection from time 0 to time t. The terminal rate constant (λz) was used to estimate the terminal half-life (t½) (ln 2/λz), and the area under the concentration–time curve from time 0 to infinity (AUC0–∞). Total body clearance (CL) and apparent body clearance (CL/f) were determined by dose/AUC0–∞, and total volume of distribution (Vz) and apparent volume of distribution (Vz/f) were calculated by dose/(AUC0–∞*λz) after IV and oral administration, respectively. Volume of distribution of the central compartment (Vc) was derived by dividing the dose by the initial drug plasma concentration after IV administration. Absolute bioavailability was calculated as F = (AUCoral/doseoral)/(AUCIV/doseIV) × 100. The ratios (%) AUCtepotinib or metabolite/AUCtotal radioactivity were calculated as a percentage of the molar AUCs.

P-glycoprotein = system: P-glycoprotein; set-up: method as in earlier work; details: cited from earlier work
[2] = set-up: method as in PMID 31822497; details: patients with solid tumors; cited from earlier work

For `CN1CCC(COc2cnc(-c3cccc(Cn4nc(-c5cccc(C#N)c5)ccc4=O)c3)nc2)CC1` [Tepotinib], the “% of total radioactive administered dose excreted in feces or urine (excreta)” value ([1]; feces plus urine) was 52%, the “% of total administered radioactive dose excreted in feces” value ([1]; feces pool 0–192 h) was 45% and the “% of AUCall of total 14C-radioactivity in plasma” value ([1]; plasma, AUCall = AUC0–240 h, molar AUC ratio) was 55%. The “% of total administered radioactive dose excreted in urine” value ([1]; urine pool 4–120 h) was 7%, the P-glycoprotein substrate status (P-glycoprotein) was “substrate of the drug efflux transporter P-glycoprotein” and the “maximum tolerated dose (not reached at doses administered)” value [2] was over 1400 mg/day.
